Test results from ChEMBL document CHEMBL1201862, “PubChem BioAssay data set” (2004).
Where “and” joins values, the source holds several entries; their conditions need not be identical. Equal values may be shown once.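 48-hour exposure; five concentrations; linearly interpolated endpoints. GI50 is the concentration that inhibits growth by half.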 Calls of active or inactive are those of the source. Cut-off read from the data, not from the text of the source: active = GI50 up to about 1.1 µM and inactive = higher. Residues, ends and D or L forms follow the SMILES beside them. *: point of attachment. Boc = CC(C)(C)OC(=O)*

Key:
Test in all cases: inhibition of tumour cell growth, NCI panel, 48 h
HOP-62 = system: HOP-62
SN12C = system: SN12C
A549 = system: A549
UACC-62 = system: UACC-62
HOP-92 = system: HOP-92
HT-29 = system: HT-29
A498 = system: A498
PC-3 = system: PC-3
OVCAR-8 = system: OVCAR-8
HCC 2998 = system: HCC 2998
ACHN = system: ACHN
MDA-MB-231 = system: MDA-MB-231
Malme-3M = system: Malme-3M
SK-OV-3 = system: SK-OV-3
BT-549 = system: BT-549
HCT-116 = system: HCT-116
NCI/ADR-RES = system: NCI/ADR-RES
SK-MEL-5 = system: SK-MEL-5
SW-620 = system: SW-620
SK-MEL-2 = system: SK-MEL-2
DU-145 = system: DU-145
MDA-N = system: MDA-N
UO-31 = system: UO-31
NCI-H226 = system: NCI-H226
HL-60 = system: HL-60
HCT-15 = system: HCT-15
IGROV-1 = system: IGROV-1
MOLT-4 = system: MOLT-4
SK-MEL-28 = system: SK-MEL-28
OVCAR-4 = system: OVCAR-4
SF-539 = system: SF-539
CCRF-CEM = system: CCRF-CEM
SNB-19 = system: SNB-19
CAKI-1 = system: CAKI-1
OVCAR-5 = system: OVCAR-5
SR = system: SR
RPMI-8226 = system: RPMI-8226
MDA-MB-435 = system: MDA-MB-435
U-251 = system: U-251
SNB-75 = system: SNB-75
RXF 393 = system: RXF 393
COLO 205 = system: COLO 205
OVCAR-3 = system: OVCAR-3
K562 = system: K562
M14 = system: M14
NCI-H460 = system: NCI-H460
LOX IMVI = system: LOX IMVI
NCI-H23 = system: NCI-H23
Hs-578T = system: Hs-578T
NCI-H522 = system: NCI-H522
TK-10 = system: TK-10
UACC-257 = system: UACC-257
MCF7 = system: MCF7
SF-268 = system: SF-268
786-0 = system: 786-0
T47D = system: T47D
KM12 = system: KM12
SF-295 = system: SF-295
EKVX = system: EKVX

Oc1ccc2ccccc2c1/N=N/c1ccccc1
GI50 (HOP-62): 33.5 µM (inactive) and > 60 µM (inactive)
GI50 (SN12C): > 100 µM (inactive)
GI50 (A549): 57.5 µM (inactive)
GI50 (UACC-62): > 100 µM (inactive)
GI50 (HOP-92): 73.5 µM (inactive)
GI50 (HT-29): 49.5 µM (inactive) and > 64.7 µM (inactive)
GI50 (A498): > 100 µM (inactive)
GI50 (PC-3): > 87.9 µM (inactive)
GI50 (OVCAR-8): 56.1 µM (inactive)
GI50 (HCC 2998): > 100 µM (inactive)
GI50 (ACHN): 61 µM (inactive) and 60.7 µM (inactive)
GI50 (MDA-MB-231): 54.5 µM (inactive) and > 82.4 µM (inactive)
GI50 (Malme-3M): > 100 µM (inactive)
GI50 (SK-OV-3): 53.3 µM (inactive)
GI50 (BT-549): > 100 µM (inactive)
GI50 (HCT-116): > 100 µM (inactive)
GI50 (NCI/ADR-RES): > 100 µM (inactive)
GI50 (SK-MEL-5): > 100 µM (inactive)
GI50 (SW-620): > 100 µM (inactive)
GI50 (SK-MEL-2): > 100 µM (inactive)
GI50 (DU-145): > 100 µM (inactive)
GI50 (MDA-N): > 100 µM (inactive)
GI50 (UO-31): > 100 µM (inactive)
GI50 (NCI-H226): 73.3 µM (inactive)
GI50 (HL-60): > 100 µM (inactive) and 73.1 µM (inactive)
GI50 (HCT-15): > 100 µM
GI50 (IGROV-1): > 69.2 µM (inactive)
GI50 (MOLT-4): > 100 µM (inactive)
GI50 (SK-MEL-28): > 100 µM (inactive)
GI50 (OVCAR-4): > 70.5 µM (inactive) and 45.2 µM (inactive)
GI50 (SF-539): > 100 µM (inactive)
GI50 (CCRF-CEM): > 100 µM (inactive)
GI50 (SNB-19): > 100 µM (inactive) and > 72.8 µM (inactive)
GI50 (CAKI-1): > 100 µM (inactive)
GI50 (OVCAR-5): > 100 µM (inactive)
GI50 (SR): > 100 µM (inactive)
GI50 (RPMI-8226): > 100 µM (inactive)
GI50 (MDA-MB-435): > 100 µM (inactive)
GI50 (U-251): 51.9 µM (inactive) and > 56 µM (inactive)
GI50 (SNB-75): > 100 µM (inactive)
GI50 (RXF 393): > 100 µM (inactive)
GI50 (COLO 205): > 100 µM (inactive)
GI50 (OVCAR-3): 51.6 µM (inactive)
GI50 (K562): > 100 µM (inactive) and 91 µM (inactive)
GI50 (M14): > 100 µM (inactive)
GI50 (NCI-H460): > 100 µM (inactive)
GI50 (LOX IMVI): > 100 µM (inactive)
GI50 (NCI-H23): > 100 µM (inactive)
GI50 (Hs-578T): > 57.3 µM (inactive) and 35.4 µM (inactive)
GI50 (NCI-H522): > 100 µM (inactive) and > 75.3 µM (inactive)
GI50 (TK-10): 73.3 µM (inactive)
GI50 (UACC-257): > 100 µM (inactive)
GI50 (MCF7): > 100 µM (inactive)

CC(C)(C)OC(=O)NC(Cc1ccc(O)cc1)C(=O)NC(CCCCN)C(=O)O (stereo not drawn) (Boc-Tyr-Lys-OH; configuration not given here)
GI50 (HOP-62): 20.6 µM (inactive)
GI50 (SN12C): 19.9 µM (inactive)
GI50 (A549): 40.4 µM (inactive)
GI50 (UACC-62): 16.5 µM (inactive)
GI50 (HT-29): 47.4 µM (inactive)
GI50 (A498): 24.8 µM (inactive)
GI50 (PC-3): 44.9 µM (inactive)
GI50 (SF-268): 34.6 µM (inactive)
GI50 (OVCAR-8): 35.2 µM (inactive)
GI50 (HCC 2998): 28.9 µM (inactive)
GI50 (ACHN): 23.7 µM (inactive)
GI50 (MDA-MB-231): 21.8 µM (inactive)
GI50 (Malme-3M): 28.1 µM (inactive)
GI50 (BT-549): 20 µM (inactive)
GI50 (HCT-116): 16.9 µM (inactive)
GI50 (SK-MEL-5): 28.1 µM (inactive)
GI50 (SW-620): 33.3 µM (inactive)
GI50 (SK-MEL-2): 20.2 µM (inactive)
GI50 (DU-145): 27 µM (inactive)
GI50 (MDA-N): 32.6 µM (inactive)
GI50 (UO-31): 19.7 µM (inactive)
GI50 (NCI-H226): 39.8 µM (inactive)
GI50 (HL-60): 23.7 µM (inactive)
GI50 (HCT-15): > 10 µM
GI50 (IGROV-1): 17.3 µM (inactive)
GI50 (MOLT-4): 32.8 µM (inactive)
GI50 (SK-MEL-28): 23.8 µM (inactive)
GI50 (OVCAR-4): 17.5 µM (inactive)
GI50 (CCRF-CEM): 33.4 µM (inactive)
GI50 (SNB-19): 22 µM (inactive)
GI50 (CAKI-1): > 10 µM (inactive)
GI50 (OVCAR-5): 25 µM (inactive)
GI50 (SR): 28.6 µM (inactive)
GI50 (RPMI-8226): 32.9 µM (inactive)
GI50 (MDA-MB-435): 20.7 µM (inactive)
GI50 (U-251): 20.9 µM (inactive)
GI50 (SNB-75): 31.6 µM (inactive)
GI50 (OVCAR-3): 28.4 µM (inactive)
GI50 (K562): 35.8 µM (inactive)
GI50 (M14): 17.4 µM (inactive)
GI50 (786-0): 28.4 µM (inactive)
GI50 (NCI-H460): 25.2 µM (inactive)
GI50 (LOX IMVI): 15 µM (inactive)
GI50 (NCI-H23): 18.5 µM (inactive)
GI50 (NCI-H522): 6.41 µM (inactive)
GI50 (T47D): 15.3 µM (inactive)
GI50 (TK-10): 37.9 µM (inactive)
GI50 (UACC-257): 27.5 µM (inactive)
GI50 (MCF7): 30.4 µM (inactive)

NNC(=S)N/N=C(/C(=O)Nc1ccc(Cl)c(Cl)c1)C(C1OC(=O)c2ccccc21)[N+](=O)[O-] (stereo not drawn)
GI50 (HOP-62): > 100 µM (inactive)
GI50 (SN12C): > 100 µM (inactive)
GI50 (A549): > 100 µM (inactive)
GI50 (UACC-62): > 100 µM (inactive)
GI50 (HOP-92): 86.9 µM (inactive)
GI50 (HT-29): > 100 µM (inactive)
GI50 (A498): > 100 µM (inactive)
GI50 (PC-3): > 100 µM (inactive)
GI50 (SF-268): > 100 µM (inactive)
GI50 (OVCAR-8): > 100 µM (inactive)
GI50 (HCC 2998): > 100 µM (inactive)
GI50 (ACHN): > 100 µM (inactive)
GI50 (MDA-MB-231): > 100 µM (inactive)
GI50 (Malme-3M): > 100 µM (inactive)
GI50 (SK-OV-3): > 100 µM (inactive)
GI50 (BT-549): > 100 µM (inactive)
GI50 (HCT-116): > 100 µM (inactive)
GI50 (NCI/ADR-RES): > 100 µM (inactive)
GI50 (SK-MEL-5): > 100 µM (inactive)
GI50 (SW-620): > 100 µM (inactive)
GI50 (SK-MEL-2): > 100 µM (inactive)
GI50 (MDA-N): > 100 µM (inactive)
GI50 (UO-31): > 100 µM (inactive)
GI50 (KM12): > 100 µM (inactive)
GI50 (NCI-H226): > 100 µM (inactive)
GI50 (HL-60): 19.9 µM (inactive)
GI50 (HCT-15): > 100 µM
GI50 (IGROV-1): 54.5 µM (inactive)
GI50 (MOLT-4): > 100 µM (inactive)
GI50 (SK-MEL-28): > 100 µM (inactive)
GI50 (OVCAR-4): > 100 µM (inactive)
GI50 (SF-539): > 100 µM (inactive)
GI50 (CCRF-CEM): 52.7 µM (inactive)
GI50 (CAKI-1): > 100 µM (inactive)
GI50 (OVCAR-5): > 100 µM (inactive)
GI50 (SR): > 10 µM (inactive)
GI50 (RPMI-8226): > 100 µM (inactive)
GI50 (MDA-MB-435): > 100 µM (inactive)
GI50 (U-251): > 100 µM (inactive)
GI50 (SF-295): > 100 µM (inactive)
GI50 (SNB-75): > 100 µM (inactive)
GI50 (RXF 393): > 100 µM (inactive)
GI50 (OVCAR-3): > 100 µM (inactive)
GI50 (K562): > 100 µM (inactive)
GI50 (M14): > 100 µM (inactive)
GI50 (786-0): > 100 µM (inactive)
GI50 (NCI-H460): > 100 µM (inactive)
GI50 (LOX IMVI): > 100 µM (inactive)
GI50 (NCI-H23): > 100 µM (inactive)
GI50 (EKVX): > 100 µM (inactive)
GI50 (Hs-578T): > 100 µM (inactive)
GI50 (NCI-H522): > 100 µM (inactive)
GI50 (T47D): > 100 µM (inactive)
GI50 (TK-10): > 100 µM (inactive)
GI50 (UACC-257): > 100 µM (inactive)
GI50 (MCF7): > 100 µM (inactive)
